# Measurements reported in US20220386591A1, “CRYOPRESERVATION COMPOSITIONS AND METHODS INCLUDING GLYCEROL ESTER COMPONENTS” (THE SECANT GROUP LLC, priority 2021, published 2022).
# Tested on: Jurkat E6.1 cells (ATCC #TIB-152)
# Test: Post-thaw viability of cells frozen immediately after addition of cryopreservative (trypan blue exclusion)
# Assay type: cell-based
# Settings: 10 wt % DMSO, FIG. 1
# Experimental: A glycerol ester component in the form of PGS was added to cell culture media containing Jurkat E6.1 cells (ATCC #TIB-152) at three different concentrations: 250 μg/mL (about 0.025 wt %), 500 μg/mL (about 0.05 wt %), and 1000 μg/mL (about 0.1 wt %). […] Cell culture media containing Jurkat E6.1 cells (ATCC #TIB-152) with no PGS and cell culture media containing Jurkat E6.1 cells (ATCC #TIB-152) with 10% DMSO served as controls. Cells were then immediately frozen at a rate of −1° C./min to −80° C. Once frozen, the cryopreserved cells were transferred to liquid nitrogen vapor phase storage for 72 hours. Following storage in a liquid nitrogen vapor phase, the cells were thawed and their viability was assessed through a trypan blue exclusion assay using a ThermoFisher Countess II FL automated cell counter to determine the percentage of viable cells.
compound,measurement,value
"C[S+](C)[O-] [DMSO, dimethyl sulfoxide]",cryoprotection of viable cells post-thaw (positive control),provided cryoprotection to essentially all of the viable cells
